Where a name gives a salt, the structure may show the parent alone.
What was measured:
[1] = target: T1, human dopamine D2L receptors (long isoform) (Homo sapiens, UniProt P14416); assay: Dopamine D2L receptor binding, displacement of [125I]-iodospiperone; conditions: *Ki(D2L)/Ki(D3), HEK-293 membranes, 0.01 nM [125I]-iodospiperone
T1 construct: expressed in transfected cells
In short: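 Triplicate incubations ran 60 min at 25 °C in pH 7.4 Tris buffer with 120 mM NaCl, 5 mM KCl, 2 mM CaCl2, 2 mM MgCl2 and 0.1% BSA. Bound radioactivity was collected by GF/B filtration and counted as dpm. Inhibition curves were fitted by iterative nonlinear regression.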

[2] = target: T2, human dopamine D3 receptors (Homo sapiens, UniProt P35462); assay: Dopamine D3 receptor binding, displacement of [125I]-iodosulpride; conditions: membranes from HEK-293 cells with stably expressed human D3 receptors, 0.1 nM [125I]-iodosulpride
T2 construct: expressed in transfected cells
T2 sequence (P35462 whole entry): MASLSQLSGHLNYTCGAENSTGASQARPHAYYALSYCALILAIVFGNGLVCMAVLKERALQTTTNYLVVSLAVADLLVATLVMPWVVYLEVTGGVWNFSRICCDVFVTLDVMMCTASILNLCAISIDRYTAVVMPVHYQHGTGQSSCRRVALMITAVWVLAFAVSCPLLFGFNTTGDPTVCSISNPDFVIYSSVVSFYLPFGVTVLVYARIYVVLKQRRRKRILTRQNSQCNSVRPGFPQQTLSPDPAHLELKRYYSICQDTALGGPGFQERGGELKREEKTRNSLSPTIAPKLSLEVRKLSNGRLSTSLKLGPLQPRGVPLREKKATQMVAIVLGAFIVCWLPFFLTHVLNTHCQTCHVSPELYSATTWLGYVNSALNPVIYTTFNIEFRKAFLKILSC

T1 sequence (P14416 whole entry, canonical isoform): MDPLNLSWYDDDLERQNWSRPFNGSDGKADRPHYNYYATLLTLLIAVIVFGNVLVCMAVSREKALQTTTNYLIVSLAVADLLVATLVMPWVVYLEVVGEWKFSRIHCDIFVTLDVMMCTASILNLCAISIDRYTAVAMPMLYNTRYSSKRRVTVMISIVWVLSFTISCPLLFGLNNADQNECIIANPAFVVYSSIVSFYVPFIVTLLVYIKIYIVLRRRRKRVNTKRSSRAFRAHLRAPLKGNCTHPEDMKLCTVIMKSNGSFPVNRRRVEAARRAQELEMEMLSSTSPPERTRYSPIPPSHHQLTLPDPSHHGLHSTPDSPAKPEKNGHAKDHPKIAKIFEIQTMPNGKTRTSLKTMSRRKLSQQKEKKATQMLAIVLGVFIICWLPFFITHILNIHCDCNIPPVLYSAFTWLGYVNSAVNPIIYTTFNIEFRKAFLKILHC

| SMILES | Selectivity D3 vs. D2L* [1] | Ki [2] |
| --- | --- | --- |
| CCCc1cc(N2CCN(CCCCn3cc(CC)c(=O)[nH]c3=O)CC2)nc(C(C)(C)C)n1 [Example 84, 4-(2-tert-Butyl-6-propylpyrimidin-4-yl)-1-[4-(5-ethyl-2,4-dioxo-3,4-dihydro-2H-pyrimidin-1-yl)butyl]piperazin-1-ium fumarate] | 63 | 0.75 nM |
| Cc1cc(C)cc(N2CCN(CCCCn3cc(C)c(=O)[nH]c3=O)CC2)c1 [Example 132, 1-{4-[4-(3,5-Dimethylphenyl)piperazin-1-yl]butyl}-5-methyl-1H-pyrimidine-2,4-dione] | 34 | 5.5 nM |
| CC(C)(C)c1nc(N2CCN(CCCCn3ccc(C(F)(F)F)nc3=O)CC2)cc(C(F)(F)F)n1.Cl [Example 15, 1-[2-tert-Butyl-6-(trifluoromethyl)pyrimidin-4-yl]-4-{4-[2-oxo-4-(trifluoromethyl)pyrimidin-1 (2H)-yl]butyl}piperazin-4-ium chloride] | 64 | 14.5 nM |
| Cc1cn(CC(C)CCN2CCN(c3cc(C(F)(F)F)nc(C(C)(C)C)n3)CC2)c(=O)[nH]c1=O (stereo not drawn) [Example 37, 1-(4-{4-[2-tert-Butyl-6-(trifluoromethyl)pyrimidin-4-yl]piperazin-1-yl}-2-methylbutyl)-5-methylpyrimidine-2,4(1H,3H)-dione] | 126 | 3.24 nM |
| CCCc1cc(N2CCN(CCCCn3ccc(OCC)nc3=O)CC2)nc(C(C)(C)C)n1 [Example 86, 4-(2-tert-Butyl-6-propylpyrimidin-4-yl)-1-[4-(4-ethoxy-2-oxo-2H-pyrimidin-1-yl)butyl]piperazin-1-ium fumarate] | 43 | 2.44 nM |
| C/C(=C\CN1CCN(c2cc(C(F)(F)F)nc(C(C)(C)C)n2)CC1)Cn1ccc(=O)[nH]c1=O [Example 46, 1-(2E)-{4-[4-(2-tert-Butyl-6-trifluoromethylpyrimidin-4-yl)piperazin-1-yl]-2-methylbut-2-enyl}-1H-pyrimidine-2,4-dione] | 43 | 5.41 nM |
| Cc1ccn(CCCCN2CCN(c3cc(C(F)(F)F)nc(C(C)(C)C)n3)CC2)c(=O)n1 [Example 8, 1-(4-{4-[2-tert-Butyl-6-(trifluoromethyl)pyrimidin-4-yl]piperazin-1-yl}butyl)-4-methylpyrimidin-2(1H)-one] | 71 | 4.4 nM |
| CC(C)c1ccn(CCCCN2CCN(c3cc(C(F)(F)F)nc(C(C)(C)C)n3)CC2)c(=O)n1 [Example 97, 4-(2-tert-Butyl-6-trifluoromethylpyrimidin-4-yl)-1-[4-(4-isopropyl-2-oxo-2H-pyrimidin-1-yl)butyl]piperazin-1-ium fumarate] | 58 | 4.26 nM |
| O=c1nc(-c2ccccc2)ccn1CCCCN1CCN(c2cccc(Cl)c2Cl)CC1 [Example 81, 4-(2,3-Dichlorophenyl)-1-[4-(2-oxo-4-phenyl-2H-pyrimidin-1-yl)butyl]piperazin-1-ium fumarate] | 94 | 2.56 nM |
| Cc1cn(CCCCN2CCN(c3cc(C(F)(F)F)cc(C(F)(F)F)c3)CC2)c(=O)[nH]c1=O [Example 125, 1-{4-[4-(3,5-Bis-trifluoromethylphenyl)piperazin-1-yl]butyl}-5-methyl-1H-pyrimidine-2,4-dione] | 63 | 6.8 nM |
| Cc1cn(CCCCN2CCN(c3ccc(F)cc3F)CC2)c(=O)[nH]c1=O [Example 131, 1-{4-[4-(2,4-Difluorophenyl)piperazin-1-yl]butyl}-5-methyl-1H-pyrimidine-2,4-dione] | 30 | 25.7 nM |

The next lines start with the values.

| Selectivity D3 vs. D2L* [1] | Ki [2] | SMILES |
| --- | --- | --- |
| 40 | 0.65 nM | CCCc1cc(N2CCN(CCCCn3ccc(-c4ccsc4)nc3=O)CC2)nc(C(C)(C)C)n1 [Example 93, 1-{4-[4-(2-tert-Butyl-6-propylpyrimidin-4-yl)piperazin-1-yl]butyl}-4-thiophen-3-yl-1H-pyrimidin-2-one] |
| 77 | 0.72 nM | CCCc1cc(N2CCN(CCCCn3ccc(-c4ccco4)nc3=O)CC2)nc(C(C)(C)C)n1 [Example 50, 1-{4-[4-(2-tert-Butyl-6-propylpyrimidin-4-yl)piperazin-1-yl]butyl}-4-furan-2-yl-1H-pyrimidin-2-one] |
| 246 | 1.3 nM | Cc1cn(CCCCN2CCN(c3cc(C(F)(F)F)nc(C(C)(C)C)n3)CC2)c(=O)nc1O.Cl [Example 5, 1-[2-tert-Butyl-6-(trifluoromethyl)pyrimidin-4-yl]-4-[4-(4-hydroxy-5-methyl-2-oxopyrimidin-1 (2H)-yl)butyl]piperazin-4-ium chloride] |
| 65 | 3.14 nM | Cc1cn(CCCCN2CCN(c3cc(C(F)(F)F)nc(C(C)(C)C)n3)CC2)c(=O)nc1NCc1ccccc1 [Example 11, 4-(Benzylamino)-1-(4-{4-[2-tert-butyl-6-(trifluoromethyl)pyrimidin-4-yl]piperazin-1-yl}butyl)-5-methylpyrimidin-2(1H)-one] |
| 96 | 1.94 nM | CCCc1cc(N2CCN(CCCCn3ccc(C(C)(C)C)nc3=O)CC2)nc(C(C)(C)C)n1.Cl [Example 21, 1-[4-(4-tert-Butyl-2-oxopyrimidin-1 (2H)-yl)butyl]-4-(2-tert-butyl-6-propylpyrimidin-4-yl)piperazin-1-ium chloride] |
| 82 | 2.62 nM | CC(C)(C)c1ccn(CCCCN2CCN(c3cc(C(F)(F)F)nc(C(C)(C)C)n3)CC2)c(=O)n1 [Example 14, 4-tert-Butyl-1-(4-{4-[2-tert-butyl-6-(trifluoromethyl)pyrimidin-4-yl]piperazin-1-yl}butyl)pyrimidin-2(1H)-one] |
| 108 | 1.87 nM | CCCc1cc(N2CCN(CCCCn3ccc(O)nc3=O)CC2)nc(C(C)(C)C)n1 [Example 20, 1-{4-[4-(2-tert-Butyl-6-propylpyrimidin-4-yl)piperazin-1-yl]butyl}-4-hydroxypyrimidin-2(1H)-one] |
